Laboratory results: paper PMC6934184, “Selective DNA-PKcs inhibition extends the therapeutic index of localized radiotherapy and chemotherapy” (The Journal of Clinical Investigation, 2019)

Molecular target: T1, MAP2K3 (MEK3) (Homo sapiens, UniProt P46734)
T1 construct: purchased Thermo Fisher Scientific (Life Technologies) SelectScreen
Assay: SelectScreen LanthaScreen
Type: binding
Settings: read-out: % displacement
Procedure, shortened: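 NU5455 was profiled across the SelectScreen Broad panel of kinase activity and binding assays. Z'LYTE reactions such as CSF1R ran at apparent Km ATP, while the Adapta CAMK1 assay used ATP listed as 10. Values are given as percent.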

T1 sequence (P46734 whole entry): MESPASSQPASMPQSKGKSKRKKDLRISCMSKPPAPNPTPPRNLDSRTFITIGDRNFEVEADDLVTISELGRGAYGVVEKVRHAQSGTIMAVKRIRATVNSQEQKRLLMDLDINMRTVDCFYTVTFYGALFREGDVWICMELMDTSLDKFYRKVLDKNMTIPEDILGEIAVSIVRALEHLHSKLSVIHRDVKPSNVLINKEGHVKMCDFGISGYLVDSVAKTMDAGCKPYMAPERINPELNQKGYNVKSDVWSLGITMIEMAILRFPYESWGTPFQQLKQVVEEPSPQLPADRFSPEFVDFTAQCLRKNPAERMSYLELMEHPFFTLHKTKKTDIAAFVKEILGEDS

Compound: CN(C(=O)CN1CCOCC1)c1ccc2sc3c(-c4cccc5c(=O)cc(N6CC7CCC(C6)O7)oc45)cccc3c2c1 [NU5455]
- inhibition at 1 µM: 1.6%
